The target of test [1] is T1, Histone-lysine N-methyltransferase NSD2 (Homo sapiens, UniProt O96028).
T1 sequence (O96028 whole entry): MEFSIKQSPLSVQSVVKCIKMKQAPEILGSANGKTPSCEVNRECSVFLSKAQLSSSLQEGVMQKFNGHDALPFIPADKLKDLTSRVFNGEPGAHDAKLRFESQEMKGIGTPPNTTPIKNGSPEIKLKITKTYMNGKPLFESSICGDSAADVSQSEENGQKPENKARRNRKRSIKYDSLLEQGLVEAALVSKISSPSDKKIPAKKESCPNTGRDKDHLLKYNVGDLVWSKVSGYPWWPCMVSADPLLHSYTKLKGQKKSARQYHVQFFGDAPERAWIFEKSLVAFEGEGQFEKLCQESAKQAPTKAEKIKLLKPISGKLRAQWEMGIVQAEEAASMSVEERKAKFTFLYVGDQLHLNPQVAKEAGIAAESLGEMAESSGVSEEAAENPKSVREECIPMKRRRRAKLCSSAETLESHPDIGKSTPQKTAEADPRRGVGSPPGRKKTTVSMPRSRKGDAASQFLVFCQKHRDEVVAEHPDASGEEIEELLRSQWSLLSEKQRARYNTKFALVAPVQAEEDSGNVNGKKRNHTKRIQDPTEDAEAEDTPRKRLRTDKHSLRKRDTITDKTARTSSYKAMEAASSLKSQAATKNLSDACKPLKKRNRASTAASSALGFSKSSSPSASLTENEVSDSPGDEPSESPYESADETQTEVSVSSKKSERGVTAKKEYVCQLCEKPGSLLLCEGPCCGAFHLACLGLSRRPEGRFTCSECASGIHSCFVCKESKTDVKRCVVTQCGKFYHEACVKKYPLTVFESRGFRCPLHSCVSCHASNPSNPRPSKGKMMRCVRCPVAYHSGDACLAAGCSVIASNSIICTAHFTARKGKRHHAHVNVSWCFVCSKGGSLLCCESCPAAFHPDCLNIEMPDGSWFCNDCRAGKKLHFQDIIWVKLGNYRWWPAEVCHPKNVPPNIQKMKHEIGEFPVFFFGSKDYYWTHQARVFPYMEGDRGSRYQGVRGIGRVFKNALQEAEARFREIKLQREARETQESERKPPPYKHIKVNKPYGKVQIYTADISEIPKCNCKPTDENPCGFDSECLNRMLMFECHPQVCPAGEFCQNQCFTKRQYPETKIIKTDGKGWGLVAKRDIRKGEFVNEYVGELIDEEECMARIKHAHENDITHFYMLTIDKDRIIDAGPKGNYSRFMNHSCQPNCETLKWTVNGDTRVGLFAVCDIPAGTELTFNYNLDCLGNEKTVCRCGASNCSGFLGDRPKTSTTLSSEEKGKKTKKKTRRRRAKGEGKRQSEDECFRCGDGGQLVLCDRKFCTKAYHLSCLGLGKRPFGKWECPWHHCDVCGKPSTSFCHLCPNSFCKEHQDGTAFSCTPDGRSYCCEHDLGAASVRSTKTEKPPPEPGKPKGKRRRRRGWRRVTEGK
It is filed as biochemical.

For test [2], the system named is BJ. Briefly: growth inhibition of engineered Ras-driven BJ cells – cell-based, alamar blue fluorescence, cherrypicked samples, dose response (AID 2631).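 Further: confirmatory dose-response assay in RAS-dependent BJ fibroblasts engineered with TERT, LT and ST, with cytotoxicity read by fluorescence.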 It is filed as functional. To be noted: Homo sapiens.
Test [3] deals with BJ. The experiment in a line: BJ-TERT fibroblast viability loss – cell-based, RAS-independent, luminescence, dose response (AID 1933). To be noted: Homo sapiens. The class given is functional.
The test system of test [4] is BJ. Briefly: cells. It is filed as functional, cell-based. The note with it: Homo sapiens.
Test [5] relates to BJ. The experiment in a line: BJ-TERT-LT-ST fibroblast viability loss – cell-based, RAS-independent, luminescence, dose response (AID 1935).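 Further: BJ fibroblasts immortalized with TERT plus LT and ST oncogenes.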 It is filed as functional. To be noted: Homo sapiens.
Test [6] addresses Nonstructural protein 1 (Influenza A virus, UniProt Q194T2). It is filed as functional, Influenza A virus (A/California/07/2009(H1N1)).
The nature of test [7]: DRD fibroblast viability loss – cell-based, non-viral oncogenic, luminescence, dose response (AID 1934). The class given is functional. To be noted: Homo sapiens.
Test [8] can be described thus: Luminescence Cell-Based Dose Retest to Confirm Inhibitors of Cancer Stem Cells. [Related pubchem assays (depositor defined):AID2717, AID2721]. It is filed as functional. The note with it: Homo sapiens.
Test [9] relates to Streptococcus. Briefly: GAS UMAA2166 growth inhibition – luminescence, BacTiterGlo, counter-screen for streptokinase expression inhibitor project, dose response (AID 1915).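 Further: potency for reduction of bacterial viability or growth.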 The class given is functional, organism-based.
Test [10] is described as follows: alpha-synuclein stem-loop luciferase translation blockers – H4 neuroglioma cells, luminescence, confirmation (AID 1988). The class given is functional, cell-based.
The subject of test [11] is Streptococcus sp. 'group A'. Briefly: Streptococcus pyogenes SK(-)GAS viability under kanamycin – luminescence, BacTiterGlo, confirmation, counter-screen for streptokinase expression inhibitor project, dose response (AID 1900). It is filed as functional, organism-based.
Test [12] in a line: Luminescence Cell-Based Dose Response HTS to Identify Inhibitors of 5'UTR Stem-Loop Driven Prion Protein mRNA Translation in H4 Neuroglioblastoma Cells. [Related pubchem assays: 1827 (Project Summary), 1813 (Primary HTS)]. It is filed as functional.
Test [13] is described as follows: luciferase reporter signal suppression in cells – H4 neuroglioma cells, luminescence, dose response (AID 1990). The class given is functional, cell-based.

Calls of active or inactive are those of the source. For most assays here, no stated cut-off is given here; in the data, actives have a measured EC50 and inactives only a lower limit. Bounds are passed on as bounds.

Sequence of Nonstructural protein 1 (Q194T2 whole entry): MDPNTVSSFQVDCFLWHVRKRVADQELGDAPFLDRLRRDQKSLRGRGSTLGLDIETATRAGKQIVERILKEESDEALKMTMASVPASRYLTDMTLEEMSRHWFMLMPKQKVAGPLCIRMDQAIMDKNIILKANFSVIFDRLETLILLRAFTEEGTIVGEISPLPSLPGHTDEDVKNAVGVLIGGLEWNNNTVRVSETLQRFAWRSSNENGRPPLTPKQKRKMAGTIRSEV

Consider `Cc1cc(C=O)c(C)n1-c1ccc(N2CCCCC2)c([N+](=O)[O-])c1`, for which the AC50 in test [1] was > 20 µM (inactive).

As to `CCN(CC)CCCNC(=O)c1cc(-c2ccccc2)c(N2CCCCC2)s1`, the EC50 in test [2] is > 133 µM (inactive); in test [3], 9.67 µM (active); in test [4], 28.8 µM (active); in test [5], 12.8 µM (inconclusive); in [7], 10.1 µM (active). Besides, in test [6], the IC50 was 88.3 µM (active). Further, in [8], the AC50 was 3.79 µM (active).

For the compound `CC1(C)N=C(N)N=C(N)N1c1ccccc1`, the EC50 in test [2] was > 133 µM (inactive); in test [9] it was 1.3 µM (active); in [10] it was 1.62 µM (active); in test [3] it was > 150 µM (not active); in test [4], 8.15 µM (active); in test [5] it was > 150 µM (not active). Besides, the EC50 in test [11] was 0.357 µM (active); in test [12], 15.6 µM (active); in [7], 14.9 µM (active); in [13], 6.38 µM (active).

For the compound `COc1cc([C@@H]2c3cc4c(cc3[C@@H](NC3CCN(Cc5ccccc5)CC3)[C@H]3COC(=O)[C@H]23)OCO4)cc(OC)c1O`, the EC50 in [2] was 0.554 µM (active); in test [3], 1.33 µM (active); in [5] it was 0.297 µM (active); in test [7], 2.38 µM (active).

These data come from ChEMBL document CHEMBL1201862, “PubChem BioAssay data set” (2004).
